Experimental data: patent US11786468B2, “Nanoparticles” (KING'S COLLEGE LONDON, priority 2015, dated 2023)
Several values for one entry are separate records, joined by “and”; a condition that tells them apart may be missing. Identical values can stand only once.

Experiments:
[1] = Pharmacokinetics of topotecan in blood by HPLC; type: in vivo, Balb C Mice; conditions: i.v. tail vein, concentration matched
Protocol: Balb C Mice were injected with IgFUS-TNPs encapsulating topotecan (8 mg/kg per mouse body weight) and drug pharmacokinetics monitored by blood sample analyses. Blood samples (50-100 μL) were collected at time intervals (2 min-4 h) and transferred into pre-weighed plastic vials containing heparin (5 uL). Cold methanol (100 μL) was added to each and the mixed samples stored over dry ice or at −20° C. until required. After thawing, each vial was weighed again and the difference used to estimate then original sample volume. […] Batches of 5 samples were analysed three times using an Agilent 1100 HPLC equipped with a cooled sample chamber (8-12° C.), a guarded Thermo Hypersil 30×4.6 mm, 5 μm C18 column, a Diode Array Detector (UV/vis absorbance) and an Agilent 1260 Infinity fluorescence detector. […] Detection was by absorbance (210/254/280 nm for proteins and other biologicals; 380 nm for topotecan; all using a bandwidth of 8 nm c.p. reference at 700 nm) and fluorescence (Ex 400 nm; Em 545 nm; PMT-gain 18). Injections were 5-20 μL depending on the sample concentrations and quantifications were calculated from the fluorescence peak areas after calibration (the detector response was effectively linear over the sensitive range). Topotecan could be reliably identified even at extremely low concentrations (10-20 ng/mL) by its intrinsic fluorescence and retention time (3.33±0.03 min; N=45). […]

[2] = 7T MRI T1/T2 assessment and relaxometry of liposome samples; type: physicochemical; design: r1: unit not given here; conditions: for T1 (s) 1 param / T1 (s) 3 param / T1 (s) Image J / T2 (s) 1 param / T2 (s) Image J / T2 (s) 3 param: 7T
Source text: A series of MRI T1/T2 assessment studies have been carried out using a 7 T pre clinical MRI scanner, with the assistance of Dr Po-Wah So (James Black Centre, KCL). The focus here has been to derive reliable r1/r2 relaxivities per molar Gd(III) for liposome produced using the [Gd]DOTA.DSA, [Gd]DOTA.Ahx.DSA and [Gd]DOTA.Aoc.DSA. This is reliant on both accurate measurements of the T1/T2 effects and also the exact gadolinium concentration in the prepared liposome suspensions. The extrusion and gel filtration processes make this latter hard to estimate, so Inductively Coupled Plasma Mass Spectrometry (ICP-MS) quantification is being assessed. This is turn required testing of suitable acid digestion conditions since the lipid-chelates may not be analysed directly. For both MRI and ICP-MS, commercial Gadovist is being used a positive control contrast agent of known Gd content. Assessment of temperature, buffer salt and liposome size effects on T1/T2 are also underway.
FIGS. 22 and 23 show Example T1 and T2 brightness traces for controls and liposome samples.
MRI data (T1, T2 lower is brighter) is shown Table 1:
Comparison of liposomes containing different lipids as measured at 7T Magnet*.

[3] = 19.6 °C, conc >0.3 mM, dil not given
[4] = 19.6 °C, dil 1 (liposomes 20 mg/mL; Gadovist 3.1 or 3 mM), Gadovist 3 mM
[5] = 19.6 °C, dil 1 (liposomes 20 mg/mL; Gadovist 3.1 or 3 mM), Gadovist 3.1 mM
[6] = 35.5 °C, conc >0.3 mM, dil not given

CC[C@@]1(O)C(=O)OCc2c1cc1n(c2=O)Cc2cc3c(CN(C)C)c(O)ccc3nc2-1 [topotecan]
drug clearance from the blood pool [1]: cleared from the blood pool in mins

O=C([O-])CN1CCN(CC(=O)[O-])CCN([C@H](CO)[C@H](O)CO)CCN(CC(=O)[O-])CC1.[Gd+3] (racemic) [Gadovist]
T1 (s) 1 param [2, 3]: 2.033 s | T1 (s) 3 param [2, 3]: 2.061 s | T1 (s) Image J [2, 3]: 2.061 s | T2 (s) 1 param [2, 3]: 0.206 s | T2 (s) Image J [2, 3]: 0.1 s | T1 (s) 1 param [2, 4]: 0.09174 s | T1 (s) 3 param [2, 4]: 0.07712 s | T1 (s) Image J [2, 4]: 0.092 s | T2 (s) 1 param [2, 4]: 0.04691 s | T2 (s) 3 param [2, 4]: 0.0488 s | T2 (s) Image J [2, 4]: 0.047 s | T1 (s) 1 param [2, 5]: 0.072 s | T1 (s) 3 param [2, 5]: 0.084 s | T1 (s) Image J [2, 5]: 0.084 s | T2 (s) 1 param [2, 5]: 0.0431 s and 0.0426 s | T2 (s) 3 param [2, 5]: 0.0422 s and 0.0419 s | T2 (s) Image J [2, 5]: 0.042 s | T1 (s) 1 param [2, 6]: 2.602 s | T1 (s) 3 param [2, 6]: 2.617 s | T1 (s) Image J [2, 6]: 2.606 s | T2 (s) 1 param [2, 6]: 0.153 s | T2 (s) Image J [2, 6]: 0.1 s | T1 (s) 1 param ([2]; 39.5 °C, dil 1 (Gadovist 3 mM)): 0.1297 s | T1 (s) 3 param ([2]; 39.5 °C, dil 1 (Gadovist 3 mM)): 0.1138 s | T1 (s) Image J ([2]; 39.5 °C, dil 1 (Gadovist 3 mM)): 0.13 s | T2 (s) 1 param ([2]; 39.5 °C, dil 1 (Gadovist 3 mM)): 0.05335 s | T2 (s) 3 param ([2]; 39.5 °C, dil 1 (Gadovist 3 mM)): 0.05578 s | T2 (s) Image J ([2]; 39.5 °C, dil 1 (Gadovist 3 mM)): 0.053 s | r1 ([2]; measured at 7T Magnet): 4.8
